Entries after “also recorded” stand apart in the source; their conditions may differ. Where two headings read alike, the source gives them in different places.
Columns and labels:
mouse = test: Progressive ratio test in the mouse
[1] = dose matched to 300 mg/kg 2R,6R-HNK
[2] = 300 mg/kg IP daily for 4 days, listed as 2R,6R-HNK
[3] = 300 mg/kg, replication after 3-week wash-out, listed as 2R,6R-HNK

O=C1CC[C@@H](C(=O)[O-])N1.[Na+] [NaPg, sodium L-pyroglutamate, reference compound]
any measure examined (mouse; [1]): did not significantly affect | breakpoint compared to vehicle controls (mouse; [1]): did not increase

N[C@@]1(c2ccccc2Cl)CCC[C@@H](O)C1=O [2R,6R-hydroxynorketamine L-pyroglutamate]
average responses per minute, higher compared with vehicle (mouse; 300 mg/kg IP): 29% | number of target touches compared to ketamine and vehicle groups (mouse; 300 mg/kg IP daily for 4 days): significant increase | breakpoint compared to vehicle and ketamine (mouse; 300 mg/kg IP daily for 4 days, tested 20 minutes after injection): significant increase | % of correct touches (mouse; [2]): significant increase; also recorded: significantly increased | ratio of target touches to blank touches (mouse; [2]): significant increase; also recorded: significantly increased | rate of responding (running rate) compared to ketamine and vehicle groups (mouse; 300 mg/kg IP, 60 minute test session): higher rate of responding | predicted peak responding (running rate coefficient) (mouse; 300 mg/kg IP, p=0.12): trend toward a main effect of drug | average responses per minute, higher compared with ketamine (mouse; 300 mg/kg IP, ketamine 10 mg/kg): 59% | breakpoint compared to vehicle and ketamine (mouse; 300 mg/kg, replication after 3-week wash-out): significant increase | % of correct touches (mouse; [3]): significant increase; also recorded: increased | number of target touches (mouse; [3]): significant increase; also recorded: increased | ratio of target touches to blank touches (mouse; [3]): significant increase; also recorded: increased | cognitive measures (mouse; doses below 30 mg/kg): No increase

CC(C)NCC(O)COc1cccc2ccccc12 (stereo not shown) [Propranolol, reference compound]
Papp Replicate 1 (Caco-2; Direction = A2B): 26.0 10^−6 cms^−1 | Papp Replicate 2 (Caco-2; Direction = A2B): 27.4 10^−6 cms^−1 | Papp Replicate 1 (Caco-2; Direction = B2A): 27.0 10^−6 cms^−1 | Papp Replicate 2 (Caco-2; Direction = B2A): 26.2 10^−6 cms^−1

— patent publication US20210315840A1, “SOLID ORAL DOSAGE FORMS OF KETAMINE DERIVATIVES” (priority 2017, published 2021)
